The source of these data is patent US20030091627A1, “Rate-controlled delivery of macrolides” (priority 2001, published 2003).

Each structure is given as a SMILES string. Converted amounts (≈) assume the structure as drawn.

Usually solubility stands for how much of the substance goes into solution per volume.

A short description of data set [1]: Solubility of clarithromycin as a function of pH (tested in water without a buffer). The format is physicochemical.
For data set [2] the following is noted: acidic pH; cited from earlier work.
Data set [3] in a line: Solubility of clarithromycin along the gastrointestinal tract. In kind it is physicochemical.

Take `CC[C@H]1OC(=O)[C@H](C)[C@@H](O[C@H]2C[C@@](C)(OC)[C@@H](O)[C@H](C)O2)[C@H](C)[C@@H](O[C@@H]2O[C@H](C)C[C@H](N(C)C)[C@H]2O)[C@](C)(OC)C[C@@H](C)C(=O)[C@H](C)[C@@H](O)[C@]1(C)O` [Clarithromycin]: the solubility was roughly 10000 µg/mL (≈ 13.4 mM) in data set [1] (aqueous buffer, pH 2.4, water without a buffer, read-out: Solubility); roughly 5500 µg/mL (≈ 7.35 mM) in data set [1] (aqueous buffer, pH 5.4, water without a buffer, read-out: Solubility); “about negligible” in data set [1] (pH 7.4, water without a buffer); “about insoluble” in data set [3] (colon, pH 7.5 to 8.5); 5000 µg/mL (≈ 6.68 mM) in data set [3] (duodenum (region of the gastrointestinal tract), read-out: Solubility); 10000 µg/mL (≈ 13.4 mM) in data set [3] (stomach (region of the gastrointestinal tract), read-out: Solubility). In data set [2], the Stability result is given as “stable at an acidic pH”.
